Drawing on patent US7541477B2, “Antagonists to melanin-concentrating hormone receptor comprising benzimidazole derivative as active ingredient” (Banyu Pharmaceutical Co., Ltd., priority 2002, dated 2009), this text covers IC50 for 3 molecules.

Molecules are shown by their SMILES. Structures can show the parent of a compound that is named as a salt.

The target in this assay is T1, human MCH-1R (Homo sapiens, UniProt Q99705).
T1 construct: expressed in transfected cells; host or cells: CHO-K1 (American Type Culture Collection), membrane preparation
T1 sequence (Q99705 whole entry): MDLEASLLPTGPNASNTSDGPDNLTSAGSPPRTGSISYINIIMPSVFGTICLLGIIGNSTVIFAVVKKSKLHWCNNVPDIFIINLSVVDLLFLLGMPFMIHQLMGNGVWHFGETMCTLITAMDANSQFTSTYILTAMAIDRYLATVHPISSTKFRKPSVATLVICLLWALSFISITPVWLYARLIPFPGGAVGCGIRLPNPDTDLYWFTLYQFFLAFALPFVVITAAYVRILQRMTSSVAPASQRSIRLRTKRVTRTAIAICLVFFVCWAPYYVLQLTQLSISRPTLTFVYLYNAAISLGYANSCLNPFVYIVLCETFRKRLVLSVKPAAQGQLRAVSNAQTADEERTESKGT
Nature of the assay: MCH binding inhibition assay ([125I]MCH, membranes of CHO-K1 cells expressing MCH-1R). To be noted: 50 pM [125I]MCH, 25° C., 1 hour; read-out: 50% Inhibitory Concentration against MCH-Binding, IC50. On the procedure:
cDNA sequence encoding human MCH-1R [FEBS Letters, 398:253(1996), Biochimica et Biophisica Acta, 1401: 216(1998)] was cloned into plasmid vector pEF/mic/cyto (Invitrogen). The expression vector so obtained was transfected into host cells CHO-K1 (American Type Culture Collection) by using Lipofectamine Plus Reagent (Life Technologies) to give MCH-1R expressing cells.
Membrane preparation generated from the cells expressing MCH-1R was incubated together with a test compound and 50 pM [^125I]MCH (NEN) in assay buffer (50 mM Tris buffer, pH7.4, containing 10 mM magnesium chloride, 2 mM ethylenediaminetetraacetic acid, 0.01% Bacitracin and 0.2% bovine serum albumin) at 25° C. for 1 hour, then filtered through a glass filter GF/C (Whatman). After washing the glass filter with 50 mM Tris buffer, pH7.4, containing 10 mM magnesium chloride, 2 mM ethylenediaminetetraacetic acid and 0.04% Tween-20, radioactivity on the glass filter was measured. Nonspecific binding was measured in the presence of 1 μM human MCH and a 50% inhibitory concentration (IC50) of the test compound against specific [^125I]MCH-binding was determined.
Regarding `CC(C)N(C)c1nc2ccc(NC(=O)CCc3ccc(C(F)(F)F)cc3)cc2[nH]1` [Example 1, N-{2-[isopropyl(methyl)amino]-1H-benzimidazol-6-yl}-3-[4-(trifluoromethyl)phenyl]propanamide], the IC50 is 5.8 nM.

As to `COc1ccc(-c2ccc(C(=O)Nc3ccc4nc(N(C)C(C)C)[nH]c4c3)cc2)cn1` [Example 17, N-{2-[isopropyl(methyl)amino]-1H-benzimidazol-6-yl}-4-(6-methoxy-3-pyridinyl)benzamide], the IC50 was found to be 6.2 nM.

Consider `CC(C)N(C)c1nc2ccc(NC(=O)c3cnc(-c4ccc(F)cc4)cn3)cc2[nH]1` [Example 24, 5-(4-Fluorophenyl)-N-{2-[isopropyl(methyl)amino]-1H-benzimidazol-6-yl}-2-pyrazinecarboxamide hydrochloride], for which the IC50 is 3.3 nM.
